{
  "source": "paper PMC12332164",
  "about": "“Synthesis and biological activity study of tanshinone I-pyridinium salt derivatives” (Natural Products and Bioprospecting, 2025)",
  "molecular_target": "T1, PI3Kα (Homo sapiens, UniProt P42336)",
  "T1 construct": "gene PIK3CA",
  "T1 sequence (P42336 whole entry)": "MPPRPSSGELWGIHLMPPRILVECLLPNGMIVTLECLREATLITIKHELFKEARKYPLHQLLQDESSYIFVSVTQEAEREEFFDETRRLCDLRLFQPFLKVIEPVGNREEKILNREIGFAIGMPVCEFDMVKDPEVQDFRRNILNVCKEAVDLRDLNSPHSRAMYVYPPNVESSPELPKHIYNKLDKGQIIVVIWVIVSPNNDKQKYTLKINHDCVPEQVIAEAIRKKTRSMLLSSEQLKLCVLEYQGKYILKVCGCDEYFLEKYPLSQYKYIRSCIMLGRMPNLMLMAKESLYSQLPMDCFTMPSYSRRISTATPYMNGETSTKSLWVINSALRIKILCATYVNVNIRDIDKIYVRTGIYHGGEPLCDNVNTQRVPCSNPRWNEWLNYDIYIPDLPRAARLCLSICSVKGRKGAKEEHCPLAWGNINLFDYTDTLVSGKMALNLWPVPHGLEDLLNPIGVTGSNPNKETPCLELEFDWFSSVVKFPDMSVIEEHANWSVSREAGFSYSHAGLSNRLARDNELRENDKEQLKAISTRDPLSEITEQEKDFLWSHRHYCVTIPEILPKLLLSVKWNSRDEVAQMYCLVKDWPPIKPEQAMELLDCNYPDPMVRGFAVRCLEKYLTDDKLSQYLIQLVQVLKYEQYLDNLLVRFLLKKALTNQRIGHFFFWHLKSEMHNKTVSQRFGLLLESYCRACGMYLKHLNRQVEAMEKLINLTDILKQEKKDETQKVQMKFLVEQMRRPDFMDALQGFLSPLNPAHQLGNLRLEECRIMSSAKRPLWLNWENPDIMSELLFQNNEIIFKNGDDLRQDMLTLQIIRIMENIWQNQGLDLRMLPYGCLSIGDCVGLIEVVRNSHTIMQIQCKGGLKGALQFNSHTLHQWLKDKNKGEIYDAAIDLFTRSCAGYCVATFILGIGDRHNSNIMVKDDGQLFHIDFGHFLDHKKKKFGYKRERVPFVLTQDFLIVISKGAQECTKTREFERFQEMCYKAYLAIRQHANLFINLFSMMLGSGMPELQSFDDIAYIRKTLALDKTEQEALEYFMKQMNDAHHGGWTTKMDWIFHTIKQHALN",
  "T1 sequence (P27986 2-724, further chain)": "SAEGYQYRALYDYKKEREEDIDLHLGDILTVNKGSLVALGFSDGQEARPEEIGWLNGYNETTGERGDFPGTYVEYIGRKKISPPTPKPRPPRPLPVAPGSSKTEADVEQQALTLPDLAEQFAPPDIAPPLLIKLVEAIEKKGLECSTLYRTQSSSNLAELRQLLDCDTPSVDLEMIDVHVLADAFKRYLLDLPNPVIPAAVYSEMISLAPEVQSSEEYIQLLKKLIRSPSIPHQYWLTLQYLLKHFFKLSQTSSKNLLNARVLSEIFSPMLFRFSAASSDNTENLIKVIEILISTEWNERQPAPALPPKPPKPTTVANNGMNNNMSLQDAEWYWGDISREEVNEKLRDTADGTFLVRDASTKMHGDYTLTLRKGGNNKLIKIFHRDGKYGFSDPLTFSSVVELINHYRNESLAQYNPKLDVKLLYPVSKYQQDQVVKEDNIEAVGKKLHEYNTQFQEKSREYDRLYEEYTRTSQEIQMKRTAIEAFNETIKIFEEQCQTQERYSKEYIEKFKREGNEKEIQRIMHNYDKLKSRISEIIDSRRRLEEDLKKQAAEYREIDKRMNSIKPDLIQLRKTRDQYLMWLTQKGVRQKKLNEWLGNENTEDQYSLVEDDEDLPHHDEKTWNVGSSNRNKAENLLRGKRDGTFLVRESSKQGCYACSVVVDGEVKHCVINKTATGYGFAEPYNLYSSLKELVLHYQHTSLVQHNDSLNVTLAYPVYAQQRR",
  "test": "biochemical",
  "data": [
    {"smiles": "Cc1cccc2c1ccc1c3occ(C)c3c3[nH]c(-c4ccc[n+](CC(=O)c5ccc(Br)cc5)c4)nc3c21", "note": "[a4, 1-(2-(4-bromophenyl)-2-oxoethyl)-3-(1,6-dimethyl-12H-furo[2',3':1,2]phenanthro[3,4-d]imidazol-11-yl) pyridin-1-ium bromide]", "values": [
      {"measurement": "IC50", "value": "9.24 ± 0.2", "unit": "µM"}
    ]}
  ]
}
